Here are results for 21 compounds from US11236106B2, “Cycloalkane-1,3-diamine derivative” (Daiichi Sankyo Company, Limited, priority 2018, dated 2022).

Counter-ions that a name gives are not always drawn.

One may read the IC50 as the point on the concentration scale where inhibition reaches its midpoint. Read a low IC50 as greater potency.

The first assay has as its target T1, menin and MLL (menin, Flag tagged; biotinylated MLL1 peptide 1-46aa) (Homo sapiens, UniProt O00255).
T1 sequence (O00255 1-610): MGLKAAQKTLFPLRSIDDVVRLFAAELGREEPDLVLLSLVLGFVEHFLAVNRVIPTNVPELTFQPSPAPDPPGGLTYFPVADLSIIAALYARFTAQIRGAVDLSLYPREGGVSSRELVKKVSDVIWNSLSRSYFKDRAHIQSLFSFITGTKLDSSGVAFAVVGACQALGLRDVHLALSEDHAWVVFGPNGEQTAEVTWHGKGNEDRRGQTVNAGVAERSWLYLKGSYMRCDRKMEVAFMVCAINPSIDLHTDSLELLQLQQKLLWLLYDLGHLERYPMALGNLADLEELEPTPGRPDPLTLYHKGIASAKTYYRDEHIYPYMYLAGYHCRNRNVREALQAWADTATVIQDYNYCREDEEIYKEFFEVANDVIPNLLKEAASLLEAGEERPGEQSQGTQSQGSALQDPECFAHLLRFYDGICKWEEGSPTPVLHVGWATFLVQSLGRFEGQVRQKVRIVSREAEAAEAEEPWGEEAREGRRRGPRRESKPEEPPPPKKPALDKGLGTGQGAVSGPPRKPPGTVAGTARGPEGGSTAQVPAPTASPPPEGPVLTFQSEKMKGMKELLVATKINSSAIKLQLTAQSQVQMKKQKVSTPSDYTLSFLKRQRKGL
In words: biochemical.
Details: not given
In turn, `COc1cc(-c2ccc(CN[C@H]3C[C@@H](O)[C@@H](N(C)c4ncnc5sc(CC(F)(F)F)cc45)C3)cc2)nnc1OC1CCCOC1` (mixture of isomers) [Example 108, (1R,2S,4R)-4-{[(4-{5-methoxy-6-[(oxan-3-yl)oxy]pyridazin-3-yl}phenyl)methyl]amino}-2-{methyl[6-(2,2,2-trifluoroethyl)thieno[2,3-d]pyrimidin-4-yl]amino}cyclopentan-1-ol hydrochloride] had an IC50 of 1.3 nM. On the same count and under the same terms, in the case of `COc1ncc(-c2ccc(CN[C@H]3C[C@@H](O)[C@@H](N(C)c4ncnc5sc(CC(F)(F)F)cc45)C3)cc2)nc1OC` [Example 96, (1R,2S,4R)-4-({[4-(5,6-dimethoxypyrazin-2-yl)phenyl]methyl}amino)-2-{methyl[6-(2,2,2-trifluoroethyl)thieno[2,3-d]pyrimidin-4-yl]amino}cyclopentan-1-ol hydrochloride] it was 2.7 nM; in that of `COc1nc(N(C)[C@H]2C[C@@H](NCc3ccc(-c4cc(OC)c(OC)cn4)cc3)C[C@H]2O)c2cc(CC(F)(F)F)sc2n1` [Example 116, (1R,2S,4R)-4-({[4-(4,5-dimethoxypyridin-2-yl)phenyl]methyl}amino)-2-{[2-methoxy-6-(2,2,2-trifluoroethyl)thieno[2,3-d]pyrimidin-4yl](methyl)amino}cyclopentan-1-ol hydrochloride], 1 nM. The same measure, in the same setting: in the case of `COc1cncc(-c2ccc(CN[C@@H]3C[C@H](N(C)c4ncnc5sc(CC(F)(F)F)cc45)C[C@H]3O)cc2)c1` [Example 50, (1R,2R,4S)-2-({[4-(5-methoxypyridin-3-yl)phenyl]methyl}amino)-4-{methyl[6-(2,2,2-trifluoroethyl)thieno[2,3-d]pyrimidin-4-yl]amino}cyclopentan-1-ol hydrochloride] it was 9.7 nM.

The assay is the same for the next values; noted with them: IC50, binding inhibitory activity between menin and MLL, AlphaLISA; 1 nM menin, 10 nM biotinylated MLL1 peptide.
Compound `[2H]C([2H])([2H])Oc1cc(-c2ccc(CN[C@H]3C[C@@H](O)[C@@H](N(C)c4nc(OC)nc5sc(CC(F)(F)F)cc45)C3)cc2)nnc1OC([2H])([2H])[2H]` [Example 123, (1R,2S,4R)-4-{[(4-{5,6-bis[(^2H3)methyloxy]pyridazin-3-yl}phenyl)methyl}amino}-2-{[2-methoxy-6-(2,2,2-trifluoroethyl)thieno[2,3-d]pyrimidin-4-yl](methyl}amino}cyclopentan-1-ol] yielded an IC50 of 0.6 nM.

Take `COc1nc(N(C)[C@H]2C[C@@H](NCc3ccc(-c4cnc(F)c(OC)c4)cc3)C[C@H]2O)c2cc(CC(F)(F)F)sc2n1` [Example 91, (1R,2S,4R)-4-({[4-(6-fluoro-5-methoxypyridin-3yl)phenyl]methyl}amino)-2{[2-methoxy6-(2,2,2-trifluoroethyl)thieno[2,3-d]pyrimidin-4-yl](methyl)amino}cyclopentan-1-ol hydrochloride]: the IC50 was 1.3 nM. `COc1cc(-c2ccc(CN[C@H]3C[C@@H](OC)[C@@H](N(C)c4ncnc5sc(CC(F)(F)F)cc45)C3)cc2)nnc1OC` [Example 127, (1R,3S,4R)—N^1-{[4-(5,6-dimethoxypyridazin-3-yl)phenyl]methyl}-4-methoxy-N^3-methyl-N^3-[6-(2,2,2-trifluoroethyl)thieno[2,3-d]pyrimidin-4-yl]cyclopentane-1,3-diamine Hydrochloride] registered a 50% inhibitory concentration (IC50) of 1.6 nM. This IC50 and that of the compound before are within 1.5-fold of each other. `COc1cc(-c2ccc(CN[C@H]3CC[C@@H](N(C)c4ncnc5sc(CC(F)(F)F)cc45)C3)cc2)nnc1OC` [Example 95, (1R,3S)-N^3-{[4-(5,6-dimethoxypyridazin-3-yl)phenyl]methyl}-N^1-methyl-N^1-[6-(2,2,2-(trifluoroethyl)thieno[2,3-d]pyrimidin-4-yl]cyclopentane-1,3-diamine hydrochloride] displayed an IC50 of 1.2 nM. In turn, `COc1cc(-c2ccc(CN[C@H]3C[C@@H](O)[C@@H](N(C)c4ncnc5sc(CC(F)(F)F)cc45)C3)cc2)nnc1Cl` [Example 84, (1R,2S,4R)-4-({[4-(6-chloro-5-methoxypyridazin-3-yl)phenyl]methyl}amino)-2-{methyl[6-(2,2,2-trifluoroethyl)thieno[2,3-d]pyrimidin-4-yl]amino}cyclopentan-1-ol hydrochloride] displayed an IC50 of 2.7 nM. In turn, `COc1nc(N(C)[C@H]2C[C@@H](NCC3CCN(c4cc(OC)c(OC)nn4)CC3)C[C@H]2O)c2cc(CC(F)(F)F)sc2n1` [Example 115, (1R,2S,4R)-4-({[1-(5,6-dimethoxypyridazin-3-yl)piperidin-4-yl]methyl}amino)-2-{[2-methoxy-6-(2,2,2-trifluoroethyl)thieno[2,3-d]pyrimidin-4-yl](methyl)amino}cyclopentan-1-ol hydrochloride] registered an IC50 of 10.9 nM. On to `CN(c1ncnc2sc(CC(F)(F)F)cc12)[C@H]1C[C@@H](NCc2ccc(-c3cc(F)cc4c3cnn4S(C)(=O)=O)cc2)C[C@H]1O` [Example 85, (1R,2S,4R)-4-[({4-[6-fluoro-1-(methanesulfonyl)-1H-indazol-4-yl]phenyl}methyl)amino]-2-{methyl[6-(2,2,2-trifluoroethyl)thieno[2,3-d]pyrimidin-4-yl]amino}cyclopentan-1-ol hydrochloride], for which the IC50 turned out to be 4 nM. On to `COc1cc(-c2ccc(CN[C@H]3C[C@@H](O)[C@@H](N(C)c4ncnc5sc(CC(F)(F)F)cc45)C3)cc2)nnc1C#N` [Example 99, 6-[4-({[(1R,3R,4S)-3-hydroxy-4-{methyl[6-(2,2,2-trifluoroethyl)thieno[2,3-d]pyrimidin-4-yl]amino}cyclopentyl]amino}methyl)phenyl]-4-methoxypyridazine-3-carbonitrile hydrochloride], for which the half-maximal inhibitory concentration (IC50) was found to be 1.1 nM. As to `COc1cc(-c2ccc(CN[C@H]3C[C@@H](O)[C@@H](N(C)c4ncncc4Oc4ccc(F)cc4-c4ccnn4C(C)C)C3)cc2)nnc1OC` [Example 102, (1R,2S,4R)-4-({[4-(5,6-dimethoxypyridazin-3-yl)phenyl]methyl}amino)-2-[(5-{4-fluoro-2-[1-(propan-2-yl)-1H-pyrazol-5-yl]phenoxy}pyrimidin-4-yl)(methyl)amino]cyclopentan-1-ol hydrochloride], the IC50 amounted to 2.7 nM. This IC50 is about 2.5-fold higher than that of the compound before.

The same assay, now with this note: cell free IC50 (nM), 1 nM menin, 10 nM biotinylated MLL1 peptide, AlphaLISA.
Compound `CN(c1ncnc2cc(CC(F)(F)F)sc12)[C@@H]1CC[C@H](NCc2ccc3[nH]c(C#N)cc3c2)C1` [Example 4, 5-({[(1S,3R)-3-{methyl[6-(2,2,2-trifluoroethyl)thieno[3,2-d]pyrimidin-4-yl]amino}cyclopentyl]amino}methyl)-1H-indole-2-carbonitrile] returned a half-inhibitory concentration (IC50) of 172 nM.

`CC(=O)Nc1ccc(CN[C@H]2CCC[C@@H](Nc3ncnc4sc(CC(F)(F)F)cc34)C2)cc1` [Example 29, N-[4-({[(1S,3R)-3-{[6-(2,2,2-trifluoroethyl)thieno[2,3-d]pyrimidin-4-yl]amino}cyclohexyl]amino}methyl)phenyl]acetamide hydrochloride] came in with a 50% inhibitory concentration (IC50) of 464 nM. With `CN(c1ncnc2sc(CC(F)(F)F)cc12)[C@@H]1CC[C@H](NCc2ccc(N3CCc4ccccc43)cc2)C1` [Example 56, (1R,3S)-N^3-{[4-(2)-3-dihydro-1H-indol-1-yl)phenyl]methyl}-N^1-methyl-N^1-[6-(2,2,2-trifluoroethyl)thieno[2,3-d]pyrimidin-4-yl]cyclopentane-1,3-diamine hydrochloride], the half-maximal inhibitory concentration (IC50) worked out at 43.6 nM. Compound `CNc1nc(N(C)[C@H]2C[C@@H](NCc3ccc(-n4ccnc4)cc3)C[C@H]2O)c2cc(CC(F)(F)F)sc2n1` [Example 61, (1R,2S,4R)-4-({[4-(1H-imidazol-1-yl)phenyl]methyl}amino)-2-{methyl[2-(methylamino)-6-(2,2,2-trifluoroethyl)thieno[2,3-d]pyrimidin-4-yl]amino}cyclopentan-1-ol hydrochloride] registered an IC50 of 1.9 nM. This IC50 is about 23-fold lower than that of the compound before. Take `COc1cncc(-c2ccc(CN[C@@H]3C[C@H](N(C)c4ncnc5sc(CC(F)(F)F)cc45)[C@@H](O)[C@H]3O)cc2)c1` [Example 20B, (1R,2S,3R,5S)-3-({[4-(5-methoxypyridin-3-yl)phenyl]methyl}amino)-5-{methyl[6-(2,2,2-trifluoroethyl)thieno[2,3-d]pyrimidin-4-yl]amino}cyclopentane-1,2-diol Hydrochloride]: the IC50 is 16.4 nM. On the same count and under the same terms, in the case of `CN(c1ncnc2sc(CC(F)(F)F)cc12)[C@@H]1CC[C@H](NCc2ccc(NCc3ccccc3)cc2)C1` [Example 7, (1R,3S)—N^3-{[4-(benzylamino)phenyl]methyl}-N^1-methyl-N^1-[6-(2,2,2-trifluoroethyl)thieno[2,3-d]pyrimidin-4-yl]cyclopentane-1,3-diamine Hydrochloride] it was 151 nM. In the case of `OCCN(c1ncnc2sc(CC(F)(F)F)cc12)[C@@H]1CC[C@H](NCc2ccc(-c3cccnc3)cc2)C1` [Example 42, 2-{[(1R,3S)-3-({[4-(pyridin-3-yl)phenyl]methyl}amino)cyclopentyl][6-(2,2,2-trifluoroethyl)thieno[2,3-d]pyrimidin-4-yl[amino}ethan-1-ol hydrochloride], the IC50 turned out to be 105 nM. The IC50 values of the last two compounds are within 1.5-fold of each other.

Regarding `CN(c1ncnc2sc(CC(F)(F)F)cc12)[C@@H]1CC[C@H](NCc2ccc(C(=O)NCc3cnn(C)c3)cc2)C1` [Example 49, N-[(1-methyl-1H-pyrazol-4-yl)methyl]-4-({[(1S,3R)-3-{methyl[6-(2,2,2-trifluoroethyl)thieno[2,3-d]pyrimidin-4-yl]amino}cyclopentyl]amino}methyl)benzamide hydrochloride], the half-inhibitory concentration (IC50) stood at 24 nM.
